{"source": "patent US12239729B2", "about": "“TRPV3 agonists for the treatment of skin conditions” (Soricimed Biopharma Inc., priority 2012, dated 2025)", "key": {"HaCaT cells [1]": {"tested_on": "HaCaT cells", "experiment": "Cell death assay in HaCaT keratinocytes (Example 3)", "assay_type": "cell-based, human", "experimental": "In an initial experiment, various concentrations of SOR-C13 and SOR-C27 were tested on human keratinocytes (HaCaT cells) for their ability to cause cell death. The negative control was Phosphate Buffered Saline (PBS) and the positive control was Glycolic Acid (20 mM), a known activator of TRPV3. At the concentrations used (10, 100 and 1000 μM) only the 1000 μM concentration produced a statistically significant increase in cell death over PBS (FIG. 6). […] The two peptides appeared to be indistinguishable in their activity with respect to the number of dead cells\nBoth peptides were dissolved in PBS at 30 mM concentration at ambient temperature based on the peptide content with a correction factor (SOR-C13 concentration was multiplied by 1.19, while SOR-C27 concentration was multiplied by 1.29). Stock solutions were sterilized by passing through a 0.2 μm syringe filter prewashed with PBS. Stocks of peptides were kept at −20° C. during the study.\nHuman immortalized keratinocyte HaCaT cells (Cat. #T0020001) were from Addexbio Technologies (San Diego, California, USA). In general, HaCaT cells were cultured in 37° C. CO2 incubator in DEME with 1.0 g/L glucose (Lonza, Cat #12-707F) with 10% FBS. Glutamine (2 mM), penicillin (100 I.U.) and streptomycin (100 μg/ml) were added to the media. Cells were sub-cultured twice per week using Trypsin-0.25% EDTA to detach cells.\nHaCaT cells were plated at ˜8×10^5/well in each well of the 12-well tissue culture plates in triplicates in 2 ml culture media. Twenty-four (24) hours post-plating, cells were treated with PBS, or SOR-C13 at 10, 100 and 1000 μM, or SOR-C27 at 10, 100 and 1000 μM, or glycolic acid at 20 mM.\nAt 72 hours post-treatment, the incubation was terminated and supernatant was collected. Attached cells were washed with 2 ml PBS, and trypsinized. Suspension of cells was combined with supernatant and spun at 1000 g for 5 minutes. The cell pellet was then resuspended in 100 μl PBS for cell counting using trypan blue exclusion.\nStudent's t-test was used to compare the group treated with a test article vs. the group treated with PBS. Standard errors of mean (SEM) were used to represent variation of data."}, "HaCaT cells [2]": {"tested_on": "HaCaT cells", "experiment": "Cell death assay in HaCaT cells with SOR-C13 fragments (Example 5)", "assay_type": "cell-based, human", "experimental": "Solutions of each of the peptides listed in Table 2 were made based on formulation weight without correction of purity in PBS at a 100 mM stock concentration. Stock solutions were sterilized by passing through a 0.2 μm syringe filter prewashed with PBS. Stocks of peptides were kept in aliquots at −20° C. during the study. Glycolic acid was made in a 5M stock in PBS and filtered using a 0.2 μm syringe filter and kept at −20° C.\nHuman immortalized keratinocyte HaCaT cells were cultured as described in Example 3.\nHaCaT cells were plated at ˜8×10^5/well in each well of the 12-well tissue culture plates in triplicates in 2 ml culture media. Twenty-four (24) hours post-plating, cells were treated with PBS, or peptide stocks at 100 and 1000 μM (in triplicates), or glycolic acid at 20 mM (single data point). The Cell Death Assay was otherwise performed as described in Example 3."}, "[3]": {"target": "T1, TRPV3 channels expressed in HEK-293 cells (Homo sapiens, UniProt Q8NET8)", "T1 construct": "expressed in transfected cells; host or cells: HEK-293 cells, transient transfection", "T1 sequence (Q8NET8 1-790)": "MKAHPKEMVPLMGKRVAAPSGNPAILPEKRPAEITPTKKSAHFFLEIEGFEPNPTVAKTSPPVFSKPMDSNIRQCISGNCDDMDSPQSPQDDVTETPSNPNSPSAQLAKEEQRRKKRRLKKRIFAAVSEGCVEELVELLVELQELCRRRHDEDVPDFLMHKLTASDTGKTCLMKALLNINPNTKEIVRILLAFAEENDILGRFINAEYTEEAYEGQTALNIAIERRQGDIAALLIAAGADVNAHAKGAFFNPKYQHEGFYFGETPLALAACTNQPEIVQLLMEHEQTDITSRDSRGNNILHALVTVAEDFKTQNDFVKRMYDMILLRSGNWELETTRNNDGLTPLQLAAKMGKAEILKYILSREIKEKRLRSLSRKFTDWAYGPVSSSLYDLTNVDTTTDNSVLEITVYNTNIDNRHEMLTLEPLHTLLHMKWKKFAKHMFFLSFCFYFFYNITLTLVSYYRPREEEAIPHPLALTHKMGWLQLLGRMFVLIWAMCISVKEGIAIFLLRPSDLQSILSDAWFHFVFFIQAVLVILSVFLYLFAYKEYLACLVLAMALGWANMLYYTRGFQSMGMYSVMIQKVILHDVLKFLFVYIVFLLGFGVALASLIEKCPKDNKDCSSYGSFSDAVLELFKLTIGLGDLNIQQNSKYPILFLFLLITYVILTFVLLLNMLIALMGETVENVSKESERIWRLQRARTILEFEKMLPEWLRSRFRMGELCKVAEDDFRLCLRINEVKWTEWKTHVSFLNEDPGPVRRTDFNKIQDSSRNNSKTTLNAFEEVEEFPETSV", "experiment": "Patch-clamp testing of TRPV3 channel activity in transfected HEK-293 cells", "assay_type": "cell-based", "experimental": "SOR-C13, SOR-C27 and SOR-N54 were tested using a patch clamp screen to determine whether the peptide had any effect on the channel activity of TRPV3. Ruthenium red, a known antagonist of TRPV3 and 2-Aminoethoxydiphenyl Borate (2-APB) a known activator of TRPV3 were used as controls.\nHEK 293 cells were maintained in ϕ30 mm cell culture plate in DMEM media supplemented with 10% fetal bovine serum and penicillin/streptomycin. Cells were grown in a humidified atmosphere of 95% air/5% CO2 at 37° C. in a cell culture incubator.\nThe cells from 70-90% confluence were prepared for transfection. For transient expression in HEK-293 cells 1 μg plasmid cDNA and pEGFP (in vivo reporter of gene expression) were used.\nRecordings were performed at 20˜23° C. Currents were sampled using Digidata 1440A, amplified, and filtered at 2 kHz using Axopatch 200B, then acquired and analyzed using pClamp 10.0 (Molecular Devices, Sunny vales, CA, USA).\nThe pipette solution and bath solution contained 140 mM CsCl, 4 mM MgCl2, 10 mM EGTA, CsOH pH=7.3 and 130 mM NaCl, 5 mM KCl, 2 mM CaCl2), 1 mM MgCl2, 25 mM HEPES, 30 mM Glucose, pH=7.3, respectively.\nEach peptide was diluted in the bath solution to the desired concentration (0.01 μM, 0.03 μM, 0.1 μM, 0.3 μM, 1 μM, 3 μM, or 10 μM), respectively."}, "HaCaT cells [4]": {"tested_on": "HaCaT cells", "experiment": "Wound healing (scratch gap closure) assay in HaCaT cells (Example 4)", "assay_type": "cell-based, human", "conditions": "24 hours; for effect on migration of HaCaT cells through the scratch (words): 100 μM", "experimental": "SOR-C13 and SOR-C27 were tested for their ability to promote tissue repair in a human keratinocytes (HaCaT) model of wound healing. In this model, cells are grown to confluency and then a gap is made in the sheet of cells by scratching the surface of the cells. After treating the cells for 24 hours, the closure of the gap, and the state of the cells in terms of polarization and mobility into the gap, are measured as a surrogate for activation of the wound healing response and the proliferation and/or migration of cells involved in tissue repair.\nHaCaT cells were plated at 4×10^5 per well in 12-well tissue culture plates in MEGM Bullet Kit (Lonza, Cat. #CC-3150) containing bovine pituitary extracts (BPE), hEGF, insulin, and hydrocortisone. The total volume was 2 ml. About 24 hours later, a gap at the bottom of each well was generated by scratching with a sterile pipette tip. The supernatant was aspirated and cells were washed gently once with PBS. Fresh media (MEGM Bullet Kit, 2 ml) was added after the wash. Cells were treated in duplicates with PBS, or SOR-C13 at 10, 100 and 1000 μM, or SOR-C27 at 10, 100 and 1000 μM, and 100 μM valproic acid. After 24 hours, each well was examined under the microscope to semi-quantify the gap closure by cell migration. A digital camera fixed to the microscope was used to capture images of cells.\nUnder visual inspection, the wound healing results was scored as: • “−”: minimal cell polarization toward wound, no initiation of cell protrusion into the gap; no change in the wound gap; • “+”: cell polarization toward wound was observed; cell protrusion was observed; cell migration started but gap size is between 75 to 100% of original wound gap; • “++”: cell polarization toward the wound was observed; cell protrusion was observed; cell migration across the gap was observed, and gap size ≤½ of original wound gap; • “+++”: cell polarization toward wound was observed; cell protrusion was observed; cell migration across the gap was observed, and gap size ≤⅓ of original wound gap. Results"}}, "note": "“Also recorded” adds a separate entry of the source. Peptide text beside a SMILES is read from it."}
{"molecule": "O=C(O)CO", "note": "[Glycolic acid, reference compound]", "values": [{"measurement": "induction of cell death (words)", "setting": "HaCaT cells [1]; 20 mM, 72 hours", "result": "dramatically induced cell death"}, {"measurement": "number of dead cells", "setting": "HaCaT cells [1]; 20 mM, 72 hours", "result": "~9.1×10^4 per well"}, {"measurement": "number of dead cells", "setting": "HaCaT cells [2]; 20 mM, 72-hour treatment, single data point", "result": "~4.5×10^4 per well"}, {"measurement": "induction of cell death above PBS", "setting": "HaCaT cells [2]; 20 mM, 72 hours", "result": "no increase in cell death above the PBS treatment"}]}
{"molecule": "N.N.N.N.N.N.N.N.N.N.N.N.N.N.[Cl-].[Cl-].[Cl-].[Cl-].[Cl-].[Cl-].[O-2].[O-2].[Ru+3].[Ru+3].[Ru+4]", "note": "[Ruthenium red]", "values": [{"measurement": "effect on activation of TRPV3 channel by 2-APB", "setting": "[3]; control inhibitor, 100 μM 2-APB", "result": "inhibited activation of the channel by 2-APB"}]}
{"molecule": "CC(C)C[C@H](NC(=O)CNC(=O)CNC(=O)[C@H](CCC(=O)O)NC(=O)[C@@H](NC(=O)[C@H](CC(=O)O)NC(=O)[C@H](CC(N)=O)NC(=O)[C@H](CO)NC(=O)[C@H](CO)NC(=O)[C@H](CC(C)C)NC(=O)[C@H](CCCCN)NC(=O)CNC(=O)[C@@H](N)CCC(=O)O)[C@@H](C)O)C(=O)N[C@@H](CS)C(=O)N[C@@H](CCCCN)C(=O)N[C@@H](CCC(=O)O)C(=O)N[C@@H](Cc1ccccc1)C(=O)N[C@@H](CC(C)C)C(=O)N[C@@H](Cc1c[nH]cn1)C(=O)N1CCC[C@H]1C(=O)N[C@@H](CO)C(=O)N[C@@H](CCCCN)C(=O)N[C@H](C(=O)N[C@@H](CC(=O)O)C(=O)N[C@@H](CC(C)C)C(=O)N1CCC[C@H]1C(=O)N[C@@H](CCCNC(=N)N)C(=O)O)C(C)C", "note": "[SOR-C27] (H-EGKLSSNDTEGGLCKEFLHPSKVDLPR-OH)", "values": [{"measurement": "increase in cell death compared to PBS treatment", "setting": "HaCaT cells [1]; 1 mM, 72-hour incubation", "result": "~2", "unit": "fold"}, {"measurement": "induction of cell death compared to PBS", "setting": "HaCaT cells [1]; 1 mM, 72 hours, p<0.05", "result": "significantly induced cell death"}, {"measurement": "number of dead cells", "setting": "HaCaT cells [1]; 1 mM, 72 hours, trypan blue exclusion", "result": "2.3×10^4 /well"}, {"measurement": "induction of cell death compared to PBS", "setting": "HaCaT cells [1]; 10 or 100 μM, 72 hours", "result": "no significant difference in the numbers of dead cells; also recorded: did not have a significant effect"}, {"measurement": "EC50", "setting": "[3]", "result": 94.1, "unit": "nM"}, {"measurement": "effect on migration of HaCaT cells over the tested concentrations", "setting": "HaCaT cells [4]; 10, 100, 1000 μM", "result": "did not appear to exert a significant effect; also recorded: no significant visual difference; also recorded: had no clear effect on promoting migration"}]}
{"molecule": "CCCC(CCC)C(=O)O", "note": "[Valproic acid, reference compound]", "values": [{"measurement": "effect on migration of HaCaT cells through the scratch (words)", "setting": "HaCaT cells [4]", "result": "appeared to block the migration"}, {"measurement": "effect on migration of HaCaT cells through the scratch (words)", "setting": "HaCaT cells [4]; listed as valproic acid", "result": "did not appear to induce migration"}]}
{"molecule": "HPSKVDLPR [SOR-C9]", "values": [{"measurement": "induction of cell death (words)", "setting": "HaCaT cells [2]; 100 μM, 72 hours, p<0.05", "result": "slight but significant increase of cell death"}, {"measurement": "induction of cell death (words)", "setting": "HaCaT cells [2]; 100 μM, 72 hours, p<0.05, listed as C9", "result": "significant cell death induction"}]}
{"molecule": "SKVDLPR [SOR-C7]", "values": [{"measurement": "induction of cell death (words)", "setting": "HaCaT cells [2]; 100 μM, 72 hours, p<0.05", "result": "slight but significant increase of cell death"}, {"measurement": "induction of cell death (words)", "setting": "HaCaT cells [2]; 100 μM, 72 hours, p<0.05, listed as C7", "result": "significant cell death induction"}, {"measurement": "induction of cell death (words)", "setting": "HaCaT cells [2]; 1000 μM, 72 hours, p<0.05", "result": "slight but significant increase of cell death"}]}
{"molecule": "SOR-N54: full length soricidin peptide, fifty-four amino acid paralytic peptide (DCSQDCAACSILARPAELNTETCILECEGKLSSNDTEGGLCKEFLHPSKVDLPR; Soricidin; UniProt P0C2P6 1-54, looked up)", "values": [{"measurement": "effect on TRPV3 channel activity / activation of TRPV3 by 2-APB", "setting": "[3]; 10 μM peptide in the presence of 100 μM 2-APB", "result": "did not show any effect; also recorded: did not alter the activation of TRPV3"}]}
